# Patent US6534311B2, “Drosophila melanogaster p70S6 kinase” (Novartis AG, priority 1996, dated 2003)
# Experiments:
# [1] = test system: S6 kinase activity in S2 cells; assay type: cell-based, Drosophila; conditions: S2 cells treated with 100 μM cycloheximide for two hours
# Method: (§1) Cell extracts are prepared and Drosophila p70^S6K activity is measured as previously described (28) or following immunoprecipitation (Lane, H. A., et al. (1992) EMBO J 11, 1743-1749) with the D20 antibody (2.5 μg).
# S2 cells are plated at 5×10^7 cells per 15 cm dish in Schneider's medium supplemented with antibiotic and 10% foetal calf serum. After 24 h, cells are changed to Schneider's medium without serum and after an additional 36 h, 5 plates of cells are treated with 100 μM cycloheximide for two hours with or without pretreatment with […] rapamycin for 15 min. Cell extracts are prepared by dounce homogenisation in Extraction buffer lacking PNPP as described in Reinhard et al., above. Briefly, each extract is centrifuged for 30 min at 3×105 g, filtered through a 0.2 μm membrane (Millipore), and applied at a flow rate of 0.5ml per min to a 1 ml Mono Q column (Pharmacia) equilibrated in Buffer F (Kozma, S.C., et al. (1989) EMBO J 8, 4125-4132). The column is washed with 10 ml of Buffer F, developed at 0.5 ml per min with a 30 ml gradient from 0-0.5M NaCl in the same buffer, and each fraction is diluted 20-fold and assayed for kinase activity. Factions 16-19 are concentrated on 100 μl of FFQ Sepharose and eluted with 300 μl of 0.5M NaCl in Buffer F. […]
# [2] = test system: Drosophila p70S6K; experiment: S6 kinase activity immunoprecipitated with D20 antibody from concentrated Mono Q fractions; assay type: cell-based, Drosophila melanogaster; conditions: cycloheximide-treated S2 cells, D20 immunoprecipitate and Western blot mobility
# Method: as §1
# S2 cells are plated at 5×10^7 cells per 15 cm dish in Schneider's medium supplemented with antibiotic and 10% foetal calf serum. After 24 h, cells are changed to Schneider's medium without serum and after an additional 36 h, 5 plates of cells are treated with 100 μM cycloheximide for two hours with or without pretreatment with […] rapamycin for 15 min. Cell extracts are prepared by dounce homogenisation in Extraction buffer lacking PNPP as described in Reinhard et al., above. […]
# To distinguish between these rapamycin sensitive and insensitive S6 kinase activities and to determine whether either represented Drosophila p70^S6K, extracts from cycloheximide-stimulated S2 cells, pretreated with or without rapamycin, are fractionated by Mono Q chromatography. The fractions eluted from the Mono Q column are monitored by A280 and subjected to an in vitro S6 kinase assay. […] The concentrated samples from cells treated with cycloheximide either in the absence or presence of rapamycin pretreatment, are either immunoprecipitated and assayed for S6 kinase activity or analysed on Western blots employing the D20 antibody. […]
smiles,measurement,setting,value
C[C@@H]1C[C@@H]([C@H](O)CC2CC(=O)NC(=O)C2)C(=O)[C@@H](C)C1 [cycloheximide],increase of S6 kinase activity over basal levels,[1],2.2 fold
same,activation of Drosophila p70S6K,[2],induces the activation
